What was measured:
[1] = tested on: cancer cells; experiment: Transfer of iron binding proteins from loaded leukocytes to co-cultured cancer cells; assay type: cell-based; conditions: for transport to cancer cells from granulocytes: loaded granulocytes (FIG. 15); for transport to cancer cells from lymphocytes: loaded lymphocytes (FIG. 16); for transport to cancer cells from macrophages: loaded macrophages, mouse mammary, colon, canine mammary, human breast, pancreatic, bladder cancer cells; for transport to cancer cells from monocytes: loaded monocytes (FIG. 14)
From the text: However, in case of cancer cells the ratio of both cell types is crucial. The more macrophages the better and faster the transport is. The most efficient transfer to the cancer cells was observed when ratio of macrophages to cancer cells was 1:1 or more.
This transfer of compounds conjugated with anticancer drugs made the effect inducing apoptosis in cancer cells (FIG. 6, 13).
However, the ratio of both cell types is important. The more monocytes the better and faster the transport is. The most efficient transfer to the cancer cells was observed when ratio of monocytes to cancer cells was 1:1 or more.
However, the ratio of both cell types is crucial. The more granulocytes the better and faster the transport is. The most efficient transfer to the cancer cells was observed when ratio of granulocytes to cancer cells was 1:1 or more.
However, the ratio of both cell types is crucial. The more lymphocytes the better and faster the transport is. The most efficient transfer to the cancer cells was observed when ratio of lymphocytes to cancer cells was 1:1 or more.

[2] = tested on: CD45^+ leukocyte cell; experiment: Uptake and storage of iron binding proteins by CD45+ leukocyte cells; assay type: cell-based; conditions: incubation 1-4 hours in protein solution (ferritin 0.8 mg/ml; haemoglobin, transferrin 0.1 mg/ml), standard culture conditions
Description: (§1) Obtained cells are incubated in ferritin solution for a time and at the concentration sufficient to ensure proper ratio of ferritin/cell for their full load and also to ensure proper drug content to obtain therapeutic effect or contrast for proper imaging. The time and concentration may vary depending on the number of molecules encapsulated/adsorbed into the ferritin cage, status of cell activation, condition and number of their intended administration.
For example, to ensure proper load with ferritins, cells are incubated for 1-4 hours in ferritin solution 0.8 mg/ml in standard culture conditions. The frame of ferritin concentration may vary at least between 0.01 and 4 mg/ml as well as incubation time (5 min-6 hours or more). Adjusting time and concentration of ferritin load to cells, the influence of ferritin and treatment conditions on cell viability should be minded.
as §1, with “haemoglobin” for “ferritin”, “haemoglobin/cell” for “ferritin/cell”, “linked with” for “encapsulated/adsorbed into”, “haemoglobin molecule,” for “ferritin cage,”, “administration. […]” for “administration.”

Substance	transport to cancer cells from granulocytes [1]	transport to cancer cells from lymphocytes [1]	transport to cancer cells from macrophages [1]	transport to cancer cells from monocytes [1]	uptake of iron binding protein by cells [2]
haemoglobins: human haemoglobin prepared from fresh red cells (SEQ ID NO: 18 or 22)	very easily transport	very easily transport	very easily transport	very easily transport	very easily uptake
transferrins: human holo-transferrin purified from serum (SEQ ID NO: 28)	very easily transport	very easily transport	very easily transport	very easily transport	very easily uptake

— patent publication US20220280663A1, “[…] TARGETED […] ACTIVE SUBSTANCE OR LABEL […] SYSTEM” (CELLIS AG, priority 2016, published 2022)
